The text below walks through data of patent US7019000B1, “Method of treating a disease condition caused or exacerbated by an HPV” (Institute of Molecular & Cell Biology, priority 1998, dated 2006).

The target in experiment [1] is T1, HPV-16-E6 (recombinant GST-E6 protein) (Human papillomavirus type 16, UniProt P03126).
T1 construct: The full length HPV16 E6 gene was amplified via polymerase chain reaction and cloned in the vector pGeX4T2; made in house; host or cells: E. coli strain AB1899
Description: biochemical. It is filed as biochemical. Conditions: read-out: TSQ % (% values of Zinc release). An excerpt: Where the chelated metal is zinc, zinc release can be measured as an increase in the fluorescence of the zinc-selective fluorophore TSQ (N-(6-methoxy-8-quinolyl)-p-toluenesulfonamide) (18) in the presence of the protein and the active compound (TSQ assay).
In such an assay, the increase in fluorescence measured can be described as a percentage of the increase in fluorescence observed for a positive control compound which provides 100% zinc release. A suitable positive control compound is H2O2. Preferred compounds which may be useful in the present invention are those which release at least 30% of the chelated zinc as measured by the TSQ assay. Particularly preferred compounds for use in the present invention are those which release at least 40% of the chelated zinc, more preferably at least 50%.
In earlier studies, reduced glutathione (GSH) was required to elute recombinant glutathione sulfhydryl transferase E6 (recombinant (GST-E6)) protein during the purification process. However, the reducing activity of the GSH sulfhydryl groups protected GST-E6 protein from the chemical attack by agents, such as the disulphide based organic compounds of Formula (I) and (II). […] Individual assays were done in the presence of 9 μg GST-E6 protein, corresponding to a concentration of 1 μM GST-E6 protein and 2 μM bound zinc, assuming the presence of two Zn ions per protein.
Release of zinc from HPV-16-E6 was monitored by the change in fluorescence of the zinc-selective fluorophore TSQ (N-6-methoxy-8-quinolyl)-p-toluenesulfonamide), (Molecular Probes, Eugene, Oreg.) by modification of published procedures (25, 26, 27). In a total reaction volume of 200 μl, 9 μg (1 μM) recombinant GST-E6 protein (corresponding to a concentration of 1 μM), bound to glutathione-sepharose beads, were incubated with 10 μM of each compound or 0.6% (170 mM) H2O2 in TSQ-assay buffer (10 mM sodium phosphate buffer pH7.0, 10% glycerol) for 2 hours at room temperature (200 μl total volume in 96-well plates). Immediately after addition of 100 μM TSQ, the increase in fluorescence was measured on a SLT Fluostar (355 nm excitation filter and 460 nm emission filter, Tecan, Salzburg).
Values given are % values of Zinc release. The relative fluorescence units (RFU) were normalized to the amount of zinc released by H2O2 (regarded as 100%). The concentration of compound used was 10 μM for C27–C35, 13 μM for C37–C83, H2O2 was used at 0.3% for C27–C35 and 0.2% for C37–C83.

Experiment [2] addresses T2, binding of E6 with E6AP and E6BP (Human papillomavirus type 16, UniProt P03126).
T2 construct: The full length HPV16 E6 gene was amplified via polymerase chain reaction and cloned in the vector pGeX4T2; made in house; host or cells: E. coli strain AB1899
Also noted: species or system HPV-16. The following applies: 400 μM compound, 2 hrs at room temperature, GST-E6 7 μM in 10 mM GSH. An excerpt: BIACORE allows real time analysis of bimolecular interactions without the need for isotopic or enzymatic labelling. BIACORE technology is based on the optical surface plasmon resonance (SPR), a technique that allows for detecting small changes in the refractive index on the surface of a thin gold film coated with a dextran matrix. Typically, one of the binding partners (termed the ligand) is covalently linked to the dextran matrix, while the other partner (termed the analyte) is introduced in a flow passing over the surface. The change in refractive index resulting from the interaction of the molecules is expressed in resonance units (RU): a SPR response of 1000 RU corresponds to a change of the surface concentration of the analyte of 1 ng protein/mm^2. GST-E6AP and GST-E6BP were used as ligands and GSTE6 was used as the analyte. […] Further controls included using the dextran matrix alone or GST as the ligand.
Binding of GST-E6 to GST-E6BP, GST-E6AP and GST was monitored by surface plasmon resonance (SPR) on a BIACORE 2000 machine (Biacore AB, Uppsala, Sweden). […] Typically 6000–10000 RU of GST, E6BP and E6AP were immobilized on three difference flowcells. Aliquots of purified HPV-16 GST-E6 (7 μM in 10 mM GSH, 50 mM Tris/PBS buffer, pH 8.2) were incubated with either 400 μM compound, or 5 mM EDTA, or 0.6% (170 mM) H2O2 for 2 hrs at room temperature. Then 10 μl of sample was injected at 1 μl/min over the three immobilized ligands using the sequential flow mode. The interactions between GST-E6 and ligands were monitored by the change of resonance signal in arbitrary units (RU).

For experiment [3], the system named is HPV containing cell lines as HeLa, SiHa and Caski, compared to HPV-negative cell lines MCF7, HEPG2, (HaCat, HT3, 444). Description: Cell viability (WST1 assay), panel of HPV-positive and HPV-negative cell lines. The following applies: 50 μM in cell culture. It is filed as cell-based, human. How it is done: Zinc finger proteins are required for maintenance of cell viability. Preferably, the compounds for use in the present invention are specific in their ability to affect the viability of MPV containing cells, with little or no cytotoxic effects on the cellular functioning of healthy non-MPV containing cells. The viability of MPV-infected cells (and non infected cells) in the presence of compounds of Formulae (I) or (II) can be measured by incubating with the tetrazolium salt WST1 (Roche Molecular Biochemicals, Manneheim Germany) and measuring the absorption readings thereof (WST1 assay).
All cell lines were obtained from the American Type Culture Collection (Manassas, Va.) unless otherwise noted. SiHa (human cervical epithelial tumor line, HPV16-positive), CaSki (human cervical epithelial tumor line, HPV16-positive), HaCat (immortalized human skin epithelial cell line, HPV-negative), HeLa (human cervical epithelial tumor line, HPV18-positive), 444 (hybrid of HeLa and fibroblast, HPV18-positive) obtained from Eric Stanbridge (Universitv of California, Irvine), MCF7 (human mammary epithelial tumor cell line, HPV-negative), HT3 (human cervical epithelial tumor cell line, HPV-negative) was obtained from the German Cancer Research Institute/DKFZ-Heidelberg, and HepG2, (human liver epithelial tumor cell line, HPV-negative), were grown in Dulbecco's modified Eagle medium (DMEM) supplemented with 10% fetal calf serum, 100 U penicillin and 1000 U streptomycin. Cells were allowed to attach to the surface of microwell dishes overnight and subsequently, incubated with medium containing the zinc ejecting compounds at the concentrations (10–100 μM). Viability of the cells was scored by measuring the absorption of the tetrazolium salt WST1 (Roche Molecular Biochemicals, Mannheim, Germany) in an Elisa-plate reader (Tecan, Salzburg, Austria) at a wavelength of 450 nm and a reference wavelength of 630 nm.
A total of 10 000 cells per well were plated on 24 well plates, after attachment overnight, they were treated 3 times in 3 days with C16 at 10 μM and 50 μM. The activity of C16 was also compared with that of C4 (azodicarbonamide) which causes ejection of zinc from HIV-1 NCp7 and is currently used in clinical trials for the treatment of AIDS.
On the technique in general: Tetrazolium dyes change colour on reduction, which living cells bring about.

T2 sequence (P03126 whole entry): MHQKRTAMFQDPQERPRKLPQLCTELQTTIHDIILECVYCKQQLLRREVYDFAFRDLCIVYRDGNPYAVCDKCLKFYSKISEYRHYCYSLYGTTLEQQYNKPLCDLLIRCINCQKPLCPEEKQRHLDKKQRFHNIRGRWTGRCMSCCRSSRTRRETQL
T1 sequence (P03126 whole entry): as above

As to `O=CN(SSN(C=O)C1CCCCC1)C1CCCCC1` [Compound R26], the activation at 10 µM in experiment [1] came out at 54.9%. Besides, the “BIACORE (E6BP/E6AP)” value in experiment [2] was “+ (compound interferes in binding of E6 with E6AP and E6BP, binding is less than 50% of the corresponding E6-DMSO value.)”. Moreover, the WST1 result in experiment [3] is reported as “+”.
